Assay results published in paper PMC8110578, “Phenylethynylbenzyl-modified biguanides inhibit pancreatic cancer tumor growth” (Scientific Reports, 2021).
Like-named read-outs stand apart in the source and are kept apart here.

How the values were obtained:
[1] = Lucigenin assay, chloride transport in EYPC liposomes; conditions: lucigenin-containing liposomes
Excerpt: Phospholipid vesicles can be used as models for studying membrane insertion and permeabilization. Using an anion-selective probe in synthetic phospholipid liposomes, anion transport can be monitored by fluorescence. […] This basification was further enhanced with the addition of a base pulse to the external solution at 300 s, indicating either a transport of protons to the extravesicular solution, or the transport of hydroxyls to the intravesicular solution. This was also reported for alkylbiguanidium salts and was described as an electrogenic process, i.e. the transmembrane transport of an ion without the balance of the charge through the movement of another ion, which usually results in a charge transfer. […] […]. The transport of H^+/OH^− ions across the membrane is an electrogenic mechanism that usually causes the depolarization of the electrochemical gradient across phospholipid membranes. When EYPC-LUVs liposomes containing intravesicular K^+ ions are bathing in an extravesicular solution containing Na^+ ions a small membrane potential is generated at their membranes, and the fluorescence of Safranin-O can be used as a membrane potential probe. […].
Experimental. […] The fluorescence was monitored for 350 s.

[2] = tested on: NAD+/NADH ratio in KP4 cells; experiment: NAD/NADH quantification, KP4 cells; format: cell-based, human
Description: All chemicals were purchased from Aldrich Chemicals in their highest purity and used without further purification. Deuterated dimethylsulfoxide (DMSO-d^6) and deuterated chloroform (CDCl3) were purchased from CDN Isotopes. NMR spectra were recorded on Bruker advance 400 and 100 spectrometers. Coupling constants are given in hertz (Hz) and chemical shifts are given in parts per million (ppm, δ) measured relative to the residual solvent (the multiplicity of the signals are given as s: singlet, d: doublet, t: triplet, and m: multiplet). High-resolution mass spectra (HRMS) were recorded on a TSQ Quantum Ultra (Thermo Scientific) triple quadrupole with accurate mass option instrument (Université de Montréal Mass Spectrometry Facility). […] Transport and depolarization studies as well as absorbance measurements were performed on a Varian Cary Eclipse fluorescence spectrophotometer. The hemolysis assays were performed on a Fluostar Optima plate reader. […] A suitable crystal was selected and analysed on a Bruker Venture Metaljet diffractometer. Crystal violet retention assay was used for cell growth assays and IC50 were determined using Prism (GraphPad). NAD/NADH quantitation colorimetric kit (#K337-100) from Biovision was used according to manufacturer’s instructions. ECAR (extracellular acidification rate) and OCR of KP4 cells (oxygen consumption rate) were measured on a Seahorse XF-24 (Agilent). […]

[3] = Octanol/water partition (logP) of compound 1b; format: physicochemical; conditions: for logP at 24 h: octanol/water
Description: Experimental. A 10 µM or 20 µM solution of 1b was prepared in 5 ml of octanol and mixed with 5 ml distilled water at 25°C The solution was stirred and was left to settle for 24 hours before the absorbance of the octanol fraction was measured. The values obtained were fitted on a calibration curve prepared by measuring the absorbance of 1b in octanol at various concentrations (2.5, 10, 15, 20 and 30 µM). The logP was calculated using the following formula: […]
Where [1b]oct is the concentration of 1b in octanol and [1b]water is the concentration of 1b in water.

[4] = tested on: HPNE cells (normal immortalized pancreatic epithelial cells); experiment: Growth assay (crystal violet), HPNE cells; format: cell-based, human; conditions: 3 days treatment, crystal violet retention assay
Description: . The IC50 of most of the synthetic biguanides in HPNE cells was higher than for cancer cells (Supplementary Table S12).
All chemicals were purchased from Aldrich Chemicals in their highest purity and used without further purification. Deuterated dimethylsulfoxide (DMSO-d^6) and deuterated chloroform (CDCl3) were purchased from CDN Isotopes. NMR spectra were recorded on Bruker advance 400 and 100 spectrometers. Coupling constants are given in hertz (Hz) and chemical shifts are given in parts per million (ppm, δ) measured relative to the residual solvent (the multiplicity of the signals are given as s: singlet, d: doublet, t: triplet, and m: multiplet). High-resolution mass spectra (HRMS) were recorded on a TSQ Quantum Ultra (Thermo Scientific) triple quadrupole with accurate mass option instrument (Université de Montréal Mass Spectrometry Facility). MS experiences were performed using an UltrafleXtreme MALDI TOF/TOF mass spectrometer equipped with a SmartBeam II Nd:Yag/355 nm laser operating at 1 kHz and providing a laser focus down to 20 μm in diameter (Bruker Daltonics, Billerica, MA). The data acquisition for MS was performed in positive ion mode using the linear geometry with flexControl 3.4 (Bruker Daltonics, Billerica, MA). Acceleration voltage was set to + 25 kV and all other instrumental parameters (delayed extraction parameters, source voltages, detector gain, laser energy, etc.) were optimized for maximum S/N for the drug compounds. L-α-Phosphatidylcholine was purchased from Avanti Polar Lipids. Transport and depolarization studies as well as absorbance measurements were performed on a Varian Cary Eclipse fluorescence spectrophotometer. The hemolysis assays were performed on a Fluostar Optima plate reader. Single crystals of C18H18F3N5O3S were obtained from chloroform. A suitable crystal was selected and analysed on a Bruker Venture Metaljet diffractometer. Crystal violet retention assay was used for cell growth assays and IC50 were determined using Prism (GraphPad). NAD/NADH quantitation colorimetric kit (#K337-100) from Biovision was used according to manufacturer’s instructions. ECAR (extracellular acidification rate) and OCR of KP4 cells (oxygen consumption rate) were measured on a Seahorse XF-24 (Agilent).
Experimental. KP4 (Riken RCB1005) and PSN1 (ATCC: CRM-CRL-3211), were cultured in Dulbecco's modified Eagle's medium (DMEM) (Wisent, St-Bruno, QC) supplemented with 10 % of fetal bovine serum (FBS) (Wisent). HPNE hTERT (ATCC: CRL1423) were cultured in a mix of 75% DMEM without glucose (Sigma Cat#. D-5030) with additional 2 mM L-glutamine and 1.5 g/L sodium bicarbonate, 25% Medium M3 Base (Incell Corp. Cat# M300F- 500), fetal bovine serum 5% (wisent 10 ng/ml human recombinant EGF (Sigma-Aldrich), 5.5 mM D-glucose (Sigma-Aldrich), 750 ng/ml puromycin (Sigma-Aldrich). For dose-response assays, cells were seeded in 96 well plates (company). After 24 h, treatments were applied and cells were grown for 3 more days. Crystal violet retention assay used for cell growth assays were described previously^2. The data is expressed as relative absorbance of crystal violet extracted from the cells and diluted in 10 % acetic acid. IC50 were determined using Prism (GraphPad). Tumor spheres were grew according to Ferbeyre et al^3.

[5] = tested on: cancer cells; conditions: cited from earlier work

Structure (SMILES)	Chloride transport across EYPC-LUV membrane [1]	Decrease of NAD+/NADH ratio ([2]; KP4 cells, 15 µM, 18 h)	Fold lower concentration than metformin for AMPK activation, decrease of NAD+/NADH ratio and mitochondrial respiration ([2]; abstract)	[1b] in octanol ([3]; Partition 1 (10 µM))	[1b] in water ([3]; Partition 1 (10 µM))	[1b] in octanol ([3]; Partition 2 (20 µM))	[1b] in water ([3]; Partition 2 (20 µM))	logP at 24 h ([3]; Partition 1 (10 µM), 25°C, 24 hours, read-out: logP)	logP at 24 h ([3]; Partition 2 (20 µM), 25°C, 24 hours, read-out: logP)	logP at 24 h ([3]; logP (mean of partitions 1 and 2), 25°C, spread ± 0.10 in its own column)	logP at 24 h ([3]; read-out: logP)	IC50 [4]	Reported antiproliferative concentration in vitro [5]
N=C(N)NC(=N)NCc1ccc(C#Cc2ccccc2)cc1 [1b, 4-(phenylethynyl)benzylbiguanide]	did not transport chloride	40%	800 fold	6.91 µM	3.09 µM	15.15 µM	4.85 µM	0.35	0.5	0.42	0.4	80.9 µM	–
CN(C)C(=N)NC(=N)N [metformin, 1,1-dimethylbiguanide, reference compound]	–	–	–	–	–	–	–	–	–	–	–	–	5 mM
